From ChEMBL document CHEMBL1201862, “PubChem BioAssay data set” (2004)
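Protocol summary: plate cells (96-well), add compound at 5 concentrations, incubate 48 h, interpolate endpoints linearly. GI50 marks 50% less growth.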 Calls of active or inactive are those of the source. Cut-off read from the data, not from the text of the source: active = GI50 up to about 1.1 µM and inactive = higher.

Tests used:
Assay in all cases: NCI tumour cell line growth inhibition, 48 h
DU-145 = tested on: DU-145
MDA-N = tested on: MDA-N
SR = tested on: SR
COLO 205 = tested on: COLO 205
ACHN = tested on: ACHN
UACC-62 = tested on: UACC-62
SN12C = tested on: SN12C
MDA-MB-231 = tested on: MDA-MB-231
MDA-MB-435 = tested on: MDA-MB-435
U-251 = tested on: U-251
A498 = tested on: A498
HT-29 = tested on: HT-29
SF-268 = tested on: SF-268
786-0 = tested on: 786-0
Hs-578T = tested on: Hs-578T
KM12 = tested on: KM12
OVCAR-4 = tested on: OVCAR-4
SK-MEL-28 = tested on: SK-MEL-28
NCI-H226 = tested on: NCI-H226
DMS-114 = tested on: DMS-114

## c1ccc2c[n+](CCCCCCCCCC[n+]3ccc4ccccc4c3)ccc2c1
DU-145
  GI50: > 4.81 µM (inactive)
MDA-N
  GI50: > 10 µM (inactive)
SR
  GI50: > 10 µM (inactive)
COLO 205
  GI50: 4.76 µM (inactive)
ACHN
  GI50: > 10 µM (inactive)
UACC-62
  GI50: > 10 µM (inactive)
SN12C
  GI50: 0.92 µM (active)
MDA-MB-231
  GI50: > 10 µM (inactive)
MDA-MB-435
  GI50: > 10 µM (inactive)
U-251
  GI50: > 8.59 µM (inactive)
A498
  GI50: > 10 µM (inactive)
HT-29
  GI50: > 5.37 µM (inactive)
SF-268
  GI50: > 10 µM (inactive)
786-0
  GI50: > 10 µM (inactive)
Hs-578T
  GI50: 9.91 µM (inactive)
KM12
  GI50: > 5.68 µM (inactive)
OVCAR-4
  GI50: > 10 µM (inactive)
SK-MEL-28
  GI50: 7.43 µM (inactive)
NCI-H226
  GI50: > 3.34 µM (inactive)

## COC1CCC(O)C(/C=C/[N+](=O)[O-])C1 (stereo unspecified)
DU-145
  GI50: 3.64 µM (inactive)
MDA-N
  GI50: 1.99 µM (inactive)
SR
  GI50: 1.59 µM (inactive)
COLO 205
  GI50: 2.28 µM (inactive)
ACHN
  GI50: 15.7 µM (inactive)
UACC-62
  GI50: 6.24 µM (inactive)
SN12C
  GI50: 2.8 µM (inactive)
MDA-MB-231
  GI50: 4.82 µM (inactive)
MDA-MB-435
  GI50: 1.65 µM (inactive)
U-251
  GI50: 2.19 µM (inactive)
A498
  GI50: 3.99 µM (inactive)
HT-29
  GI50: 3.37 µM (inactive)
SF-268
  GI50: 3.37 µM (inactive)
786-0
  GI50: 1.7 µM (inactive)
Hs-578T
  GI50: 2.99 µM (inactive)
KM12
  GI50: 4.14 µM (inactive)
OVCAR-4
  GI50: 14.8 µM (inactive)
SK-MEL-28
  GI50: 13.4 µM (inactive)
NCI-H226
  GI50: 2.07 µM (inactive)

## CCC(C)C1NC(=O)CNC(=O)C2Cc3c([nH]c4cc(O)ccc34)[S+]([O-])CC(NC(=O)CNC1=O)C(=O)NC(CC(=O)O)C(=O)N1CC(O)CC1C(=O)NC(C(C)C(O)CO)C(=O)N2 (stereo unspecified)
COLO 205
  GI50: 1.41 µM (inactive)
UACC-62
  GI50: 2.35 µM (inactive)
SN12C
  GI50: 4.63 µM (inactive)
U-251
  GI50: 3.83 µM (inactive)
A498
  GI50: 2.83 µM (inactive)
HT-29
  GI50: 28.8 µM (inactive)
SF-268
  GI50: 1.64 µM (inactive)
DMS-114
  GI50: 0.759 µM (active)
KM12
  GI50: 6.46 µM (inactive)
OVCAR-4
  GI50: 2.07 µM (inactive)
SK-MEL-28
  GI50: 2.54 µM (inactive)
NCI-H226
  GI50: 1.6 µM (inactive)

## O=c1ccn(C/C=C/c2ccccc2)c(=S)n1C/C=C/c1ccccc1
DU-145
  GI50: > 100 µM (inactive)
MDA-N
  GI50: 47.4 µM (inactive)
SR
  GI50: 8.24 µM (inactive)
COLO 205
  GI50: 54 µM (inactive)
ACHN
  GI50: > 100 µM (inactive)
UACC-62
  GI50: > 100 µM (inactive)
SN12C
  GI50: 31.3 µM (inactive)
MDA-MB-231
  GI50: > 100 µM (inactive)
MDA-MB-435
  GI50: 60 µM (inactive)
U-251
  GI50: 77.1 µM (inactive)
A498
  GI50: > 100 µM (inactive)
HT-29
  GI50: > 100 µM (inactive)
SF-268
  GI50: > 100 µM (inactive)
786-0
  GI50: > 100 µM (inactive)
Hs-578T
  GI50: > 100 µM (inactive)
KM12
  GI50: > 100 µM (inactive)
OVCAR-4
  GI50: 90.4 µM (inactive)
SK-MEL-28
  GI50: > 100 µM (inactive)
NCI-H226
  GI50: > 100 µM (inactive)

## CN(CCO)/N=N/c1n[nH]cc1C(N)=O
COLO 205
  GI50: > 100 µM (inactive)
UACC-62
  GI50: > 100 µM (inactive)
SN12C
  GI50: > 100 µM (inactive)
U-251
  GI50: > 100 µM (inactive)
A498
  GI50: > 100 µM (inactive)
HT-29
  GI50: > 100 µM (inactive)
SF-268
  GI50: > 100 µM (inactive)
DMS-114
  GI50: > 100 µM (inactive)
KM12
  GI50: > 100 µM (inactive)
OVCAR-4
  GI50: > 100 µM (inactive)
SK-MEL-28
  GI50: > 100 µM (inactive)
NCI-H226
  GI50: > 100 µM (inactive)

## C[C@]12CC[C@H]3[C@@H](CCC4=CC(=O)CC[C@@H]43)[C@@H]1CC[C@@H]2OC1(O)C(=O)c2ccccc2C1=O
DU-145
  GI50: 16.5 µM (inactive)
MDA-N
  GI50: 17.6 µM (inactive)
SR
  GI50: 35.6 µM (inactive)
COLO 205
  GI50: 24.4 µM (inactive)
ACHN
  GI50: 27.7 µM (inactive)
UACC-62
  GI50: 11.7 µM (inactive)
SN12C
  GI50: 17 µM (inactive)
MDA-MB-231
  GI50: 87.3 µM (inactive)
MDA-MB-435
  GI50: 32.7 µM (inactive)
U-251
  GI50: 48.8 µM (inactive)
A498
  GI50: 48.5 µM (inactive)
HT-29
  GI50: 35.1 µM (inactive)
SF-268
  GI50: 34.1 µM (inactive)
786-0
  GI50: 24.9 µM (inactive)
Hs-578T
  GI50: 11.2 µM (inactive)
KM12
  GI50: > 100 µM (inactive)
OVCAR-4
  GI50: 91.4 µM (inactive)
SK-MEL-28
  GI50: > 100 µM (inactive)
NCI-H226
  GI50: > 100 µM (inactive)

## C=C(CO[Si](C)(C)C(C)(C)C)C(C)=O
DU-145
  GI50: > 100 µM (inactive)
MDA-N
  GI50: 15.3 µM (inactive)
SR
  GI50: 3.55 µM (inactive)
COLO 205
  GI50: 24.5 µM (inactive)
ACHN
  GI50: 26.5 µM (inactive)
UACC-62
  GI50: 15.7 µM (inactive)
SN12C
  GI50: 27.7 µM (inactive)
MDA-MB-231
  GI50: 20.3 µM (inactive)
MDA-MB-435
  GI50: 17.6 µM (inactive)
U-251
  GI50: > 63.2 µM (inactive)
A498
  GI50: > 100 µM (inactive)
HT-29
  GI50: 19.5 µM (inactive)
SF-268
  GI50: 31.4 µM (inactive)
786-0
  GI50: 17.2 µM (inactive)
Hs-578T
  GI50: 25.8 µM (inactive)
KM12
  GI50: 58.1 µM (inactive)
OVCAR-4
  GI50: 21 µM (inactive)
SK-MEL-28
  GI50: 17.8 µM (inactive)
NCI-H226
  GI50: > 69.3 µM (inactive)

## O=[N+]([O-])c1cccc2c1[nH]c1c(-c3ccccc3)nccc12
COLO 205
  GI50: 2.02 µM (inactive)
UACC-62
  GI50: 1.74 µM (inactive)
SN12C
  GI50: 2.7 µM (inactive)
U-251
  GI50: 2.51 µM (inactive)
A498
  GI50: 3.72 µM (inactive)
HT-29
  GI50: 1.58 µM (inactive)
SF-268
  GI50: 4.04 µM (inactive)
DMS-114
  GI50: 1.27 µM (inactive)
KM12
  GI50: 3.03 µM (inactive)
OVCAR-4
  GI50: 2.02 µM (inactive)
SK-MEL-28
  GI50: 3.84 µM (inactive)
NCI-H226
  GI50: 1.58 µM (inactive)
